The values that follow are results of earlier work, collected in US20240077492A1, “ARRAY-BASED PEPTIDE LIBRARIES FOR THERAPEUTIC ANTIBODY CHARACTERIZATION” (Cowper Sciences Inc., priority 2016, published 2024).

For the data set the following is noted: background statement.

As to “Remicade: one of the most prescribed antibody therapeutics”, the “effective in fraction of the patient population” value is 25%.
